Experimental data: patent US10231453B2, “5-substituted imidazole derivatives” (BAYER CROPSCIENCE AKTIENGESELLSCHAFT, priority 2015, dated 2019)

Experiments:
Uromyces appendiculatus = experiment: In vivo preventive test on Uromyces appendiculatus (bean rust), Examples G and R7; conditions: 264 h, 500 ppm of active ingredient, bean, preventive spray, evaluated 11 days after inoculation, read-out: efficacy
Pyricularia oryzae = experiment: whole plant or invertebrate; format: in vivo; conditions: 192 h, read-out: efficacy
Alternaria brassicae = experiment: In vivo preventive test on Alternaria brassicae (leaf spot on radish), Examples A and R1; conditions: Alternaria brassicae, 144 h, 500 ppm of active ingredient, preventive spray, evaluated 6 days after inoculation, read-out: efficacy
Botrytis cinerea = experiment: In vivo preventive test on Botrytis cinerea (grey mould) on gherkin, Examples B, Q1 and R2; conditions: Botrytis cinerea, 500 ppm of active ingredient, preventive spray, evaluated 4 to 5 days after inoculation, read-out: efficacy
Alternaria solani = experiment: In vivo preventive Alternaria test (tomatoes), Example H; conditions: 72 h, 100 ppm of active ingredient, preventive spray, evaluated 3 days after inoculation, read-out: efficacy
Phakopsora pachyrhizi = experiment: In vivo preventive Phakopsora test (soybeans), Example I; conditions: 168 h, 100 ppm of active ingredient, preventive spray, evaluated 7 days after inoculation, read-out: efficacy
Puccinia recondita = experiment: In vivo preventive test on Puccinia recondita (brown rust on wheat), Examples C and R3; conditions: Puccinia recondita, 264 h; 500 ppm of active ingredient; wheat, preventive spray, evaluated 11 days after inoculation; read-out: efficacy
Venturia inaequalis = experiment: In vivo preventive Venturia test (apples), Example J; conditions: 240 h, read-out: efficacy
Description: After the spray coating has dried on, the plants are inoculated with an aqueous conidia suspension of the causal agent of apple scab (Venturia inaequalis) and then remain for 1 day in an incubation cabinet at approximately 20° C. and a relative atmospheric humidity of 100%.
The plants are then placed in a greenhouse at approximately 21° C. and a relative atmospheric humidity of approximately 90%.
The test is evaluated 10 days after the inoculation.

Septoria tritici = experiment: In vivo preventive test on Septoria tritici (leaf spot on wheat), Examples E, Q3 and R5; conditions: Zymoseptoria tritici, 576 h, 500 ppm of active ingredient; wheat, preventive spray, evaluated 24 days after inoculation; read-out: efficacy
[1] = system: Blumeria graminis fsp. hordei; experiment: In vivo preventive Blumeria test (barley), Example K; conditions: 168 h, 500 ppm of active ingredient, preventive spray, evaluated 7 days after inoculation, read-out: efficacy
Text: After the spray coating has been dried, the plants are dusted with spores of Blumeria graminis fsp. hordei.

Pyrenophora teres = experiment: In vivo preventive test on Pyrenophora teres (net blotch on barley), Examples D, Q2 and R4; conditions: Pyrenophora teres, 336 h, 500 ppm of active ingredient, preventive spray, evaluated 14 days after inoculation, read-out: efficacy
Sphaerotheca fuliginea = experiment: In vivo preventive test on Sphaerotheca fuliginea (powdery mildew on cucurbits), Examples F and R6; conditions: Podosphaera fuliginea, 360 h; 500 ppm of active ingredient; gherkin, preventive spray, evaluated 15 days after inoculation; read-out: efficacy
[2] = Measurement of LogP values by HPLC on reversed phase columns (EEC directive 79/831 Annex V.A8); format: physicochemical; conditions: method [a]: LC-UV, acidic range, 0.1% formic acid in water and acetonitrile as eluent; Table 1
Description: Measurement of Log P values was performed as outlined above.

Fusarium graminearum = experiment: whole plant or invertebrate; format: in vivo; conditions: in Hordeum vulgare, 120 h, read-out: efficacy
[3] = system: Fusarium nivale (var. majus); experiment: In vivo preventive Fusarium nivale (var. majus) test (wheat), Example O; conditions: Microdochium nivale, 120 h, 500 ppm of active ingredient, preventive spray, evaluated 5 days after inoculation, read-out: efficacy
Text: After the spray coating has been dried, the plants are slightly injured by using a sandblast and afterwards they are sprayed with a conidia suspension of Fusarium nivale (var. majus).

| SMILES | pest or weed control at 500 ppm (Uromyces appendiculatus) [%] | pest or weed control at 500 ppm (Pyricularia oryzae) [%] | pest or weed control at 500 ppm (Alternaria brassicae) [%] | pest or weed control at 500 ppm (Botrytis cinerea) [%] | pest or weed control at 100 ppm (Alternaria solani) [%] | pest or weed control at 100 ppm (Phakopsora pachyrhizi) [%] | pest or weed control at 500 ppm (Puccinia recondita) [%] | pest or weed control at 100 ppm (Venturia inaequalis) [%] | pest or weed control at 500 ppm (Septoria tritici) [%] | pest or weed control at 500 ppm [1] [%] | pest or weed control at 500 ppm (Pyrenophora teres) [%] | pest or weed control at 500 ppm (Sphaerotheca fuliginea) [%] | chromatographic logP [2] | pest or weed control at 500 ppm (Fusarium graminearum) [%] | pest or weed control at 500 ppm [3] [%] |
| --- | --- | --- | --- | --- | --- | --- | --- | --- | --- | --- | --- | --- | --- | --- | --- |
| N#Cc1cncn1CC(O)(Cc1ccccc1Br)C1(Cl)CC1 (stereo not drawn) [Example I-40] | 90 to 100 | 70 to 79 | 80 to 89 | 90 to 100 | 90 to 100 | 90 to 100 | 80 to 89 | 80 to 89 | 90 to 100 | 90 to 100 | 70 to 79 | 90 to 100 | – | – | – |
| N#Cc1cncn1CC(O)(Cc1ccccc1Cl)C1(F)CC1 (stereo not drawn) [Example I-98] | 90 to 100 | 90 to 100 | – | 70 to 79 | 90 to 100 | 90 to 100 | 90 to 100 | 90 to 100 | 90 to 100 | 90 to 100 | 90 to 100 | 90 to 100 | 2.53 | 90 to 100 | – |
| N#Cc1cncn1CC(O)(Cc1cc(F)cc(F)c1)C1(Cl)CC1 (stereo not drawn) [Example I-156] | 90 to 100 | – | – | – | – | – | 90 to 100 | – | 90 to 100 | 90 to 100 | 80 to 89 | 90 to 100 | 2.86 | 80 to 89 | – |
| CC(C)(C)C(O)(Cc1ccccc1F)Cn1cncc1C#N (stereo not drawn) [Example I-138] | 90 to 100 | 80 to 89 | – | 80 to 89 | – | 90 to 100 | 90 to 100 | 70 to 79 | 90 to 100 | 90 to 100 | – | 90 to 100 | 2.73 | 90 to 100 | – |
| N#Cc1cncn1CC(O)(Cc1ccnc(Cl)c1Cl)C1(Cl)CC1 (stereo not drawn) [Example I-50] | 90 to 100 | 70 to 79 | – | – | 70 to 79 | 80 to 89 | 80 to 89 | 80 to 89 | 90 to 100 | 90 to 100 | 80 to 89 | 90 to 100 | 2.47 | – | 90 to 100 |
| N#Cc1cncn1CC(O)(Cc1ccc(Cl)cc1)C1(Cl)CC1 (stereo not drawn) [Example I-64] | 90 to 100 | – | – | – | – | – | 90 to 100 | – | 90 to 100 | 90 to 100 | – | 90 to 100 | 3.1 | 80 to 89 | – |
| CC1(C(O)(Cc2cccc(F)c2F)Cn2cncc2C#N)CC1 (stereo not drawn) [Example I-144] | 90 to 100 | 70 to 79 | – | 90 to 100 | – | – | 90 to 100 | – | 90 to 100 | 90 to 100 | 90 to 100 | 90 to 100 | 2.75 | 90 to 100 | – |
| Cc1cc(F)ccc1CC(O)(Cn1cncc1Cl)C1(Cl)CC1 (stereo not drawn) [Example I-155] | 90 to 100 | – | 70 to 79 | 90 to 100 | 90 to 100 | 90 to 100 | 80 to 89 | 90 to 100 | 90 to 100 | – | 70 to 79 | 90 to 100 | 2.46 | – | – |
